Literature values as cited in patent publication US20030171329A1, “Stable compositions comprising tezacitabine” (priority 2002, published 2003).
Read-outs that look alike come from different tables or passages of the source.

Tests used:
[1] = cited from earlier work
ribonucleotide reductase = molecular target: T1, ribonucleotide reductase (Homo sapiens, UniProt P23921); conditions: cited from earlier work
T1 sequence (P23921 1-792): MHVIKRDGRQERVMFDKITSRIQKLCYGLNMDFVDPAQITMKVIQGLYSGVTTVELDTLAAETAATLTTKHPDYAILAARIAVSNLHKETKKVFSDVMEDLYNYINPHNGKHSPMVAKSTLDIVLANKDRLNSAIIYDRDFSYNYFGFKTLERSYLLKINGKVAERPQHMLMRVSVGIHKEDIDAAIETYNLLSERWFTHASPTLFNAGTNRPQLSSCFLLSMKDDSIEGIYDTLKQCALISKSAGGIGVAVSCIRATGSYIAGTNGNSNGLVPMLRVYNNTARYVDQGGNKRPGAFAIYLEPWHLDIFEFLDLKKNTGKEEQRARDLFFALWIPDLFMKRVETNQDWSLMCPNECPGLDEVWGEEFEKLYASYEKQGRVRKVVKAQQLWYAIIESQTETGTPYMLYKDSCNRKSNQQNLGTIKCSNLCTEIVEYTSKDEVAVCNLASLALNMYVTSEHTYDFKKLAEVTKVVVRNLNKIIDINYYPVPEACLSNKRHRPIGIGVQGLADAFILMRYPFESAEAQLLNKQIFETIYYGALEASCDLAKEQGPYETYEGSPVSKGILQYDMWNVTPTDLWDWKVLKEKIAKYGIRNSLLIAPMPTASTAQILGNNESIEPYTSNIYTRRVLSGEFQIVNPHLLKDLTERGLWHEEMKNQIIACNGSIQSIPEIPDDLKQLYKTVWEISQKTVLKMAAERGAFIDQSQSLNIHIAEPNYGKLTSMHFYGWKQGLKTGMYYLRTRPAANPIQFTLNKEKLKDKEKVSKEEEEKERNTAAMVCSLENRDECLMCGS
T1 sequence (P31350 1-389 partner): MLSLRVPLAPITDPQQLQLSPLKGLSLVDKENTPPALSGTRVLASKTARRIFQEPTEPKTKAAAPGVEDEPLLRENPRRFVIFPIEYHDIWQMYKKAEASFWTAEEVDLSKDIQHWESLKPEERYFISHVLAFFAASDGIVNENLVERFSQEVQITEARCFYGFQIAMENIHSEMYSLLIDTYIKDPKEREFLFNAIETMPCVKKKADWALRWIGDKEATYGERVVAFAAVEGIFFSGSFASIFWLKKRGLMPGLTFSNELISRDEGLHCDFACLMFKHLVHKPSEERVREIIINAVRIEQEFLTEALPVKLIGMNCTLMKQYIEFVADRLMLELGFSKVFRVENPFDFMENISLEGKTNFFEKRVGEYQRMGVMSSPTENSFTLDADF

[2] = system: replicating strand of DNA; conditions: incorporated directly into the replicating strand of DNA; cited from earlier work

## Nc1ccn([C@@H]2O[C@H](CO)[C@@H](O)[C@@H]2O)c(=O)n1 [Cytarabine]
[1]; aqueous solution
  pH of best stability: most stable at neutral pH (7-8)

## Nc1ccn([C@@H]2O[C@H](CO)[C@@H](O)C2(F)F)c(=O)n1 [Gemcitabine]
[1]; acid conditions (low pH)
  stability in words: relatively stable
[1]; high pH
  stability in words: considerably less stable

## Nc1ccn(C2OC(COP(=O)(O)OP(=O)(O)O)C(O)C2=CF)c(=O)n1 (centres unmarked) [tezacitabine diphosphate]
Ribonucleotide reductase
  effect on ribonucleotide reductase: inhibits ribonucleotide reductase

## Nc1ccn(C2OC(COP(=O)(O)OP(=O)(O)OP(=O)(O)O)C(O)C2=CF)c(=O)n1 (centres unmarked) [tezacitabine triphosphate]
[2]
  effect on DNA synthesis: causes premature chain termination
